# Assay results as given in US20240197596A1, “COMPOUNDS USEFUL AS HAIR DYES” (National University of Singapore, priority 2021, published 2024).
# “And” between values parts separate entries of the source, which are not always exact repeats. Identical values can stand only once. “Also recorded” adds a separate entry of the source.
# Legend:
# Hair nuance test = experiment: Hair nuance test; set-up: key to L* / a* / b*: CIELAB L*, a*, b* coordinates; key to ΔE (total colour difference to natural hair): ΔE = √((L*−L0)²+(a*−a0)²+(b*−b0)²) vs untreated hair; settings: for eventual colour of bleached hair, Type A: Type A (Non-oxidative) formulation; for eventual colour of bleached hair, Type B: Type B (Oxidative, H2O2) formulation; for eventual colour of bleached hair, Type C: Type C (Oxidative with coupler resorcinol) formulation
# Description: 35 g of bleaching powder was mixed with 50 mL of developer then applied onto undyed black hair (wrapped in aluminium foil to enhance the bleaching process) and left on for 45 min. The hair was then rinsed with deionized water and shampoo and left to dry. This process was repeated twice.
# Hair dye formulations were prepared from N1-N13 according to methods reported (New Journal of Chemistry. 2019; 43(41):16188-99), and with the compositions stated in Table 11 Bleached hair samples were immersed into the respective formulations for 20 min, then air dried for 20 min. Then they were shampooed twice and treated with conditioner for 5 min.
# SkinColorCatch (Delfin Technologies Ltd, Kuopio, Finland) was used to measure CIELAB tristimulus L*, a* and b* values of the dyed hair samples and baseline L0, a0, b0 values from untreated hair. The difference in colour tone (ΔH) and the total colour difference (ΔE) were then derived from the values obtained with the equations below:
# ΔH=√{square root over ((a*−a0)^2+(b*−b0)^2)}
# ΔE=√{square root over ((L*−L0)^2+(a*−a0)^2+(b*−b0)^2)}
# THP-1 cells = experiment: MTT assay on THP-1 cells (CV75); format: cell-based, human; settings: THP-1 cells, 24 h
# How it was run: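 THP-1 cells seeded at 1×10^5 cells/well, grown 24 h at 37 °C/5% CO2, then exposed to a dilution series for 24 h (6 replicates). MTT added for 3 h, formazan dissolved in DMSO, absorbance read at 570 nm; CV75 derived from % viability.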
# [1] = Skin permeation study, Franz diffusion cell; format: in vitro ADME, porcine; settings: for Cumulative amount at 8th hour: 1% w/v in deionized water; for Cumulative amount at 8th hour / Cumulative amount comparison of PPD vs derivatives (times less than PPD) / Permeated through skin into receptor / Recovered in donor compartment / Recovered in skin / Recovered in skin outside diffusion area / Recovered in skin swabs / Recovered on parafilm and in washes: 8 h; for Permeated through skin into receptor / Recovered in donor compartment / Recovered in skin / Recovered in skin outside diffusion area / Recovered in skin swabs / Recovered on parafilm and in washes: mass balance; for recovery at 8 h, 1 % w/v: pig, end of 8 h, read-out: Total recovery (mean percentage parent compound recovery)
# Description: In each Franz cell, a piece of pig ear skin prepared to a thickness of […] was clamped securely. 5 mL of PBS solution was added to the receiver compartment which was purged of air bubbles to ensure maximal contact of the skin piece with the solution. Donor solution was prepared by dissolving N1-N13 in deionized water at 1% w/v, and 900 μL was added to the donor compartment. The study was conducted for 8 h, and aliquots of 200 μL were removed from the receiver solution and topped up with fresh PBS at each timepoint of 15-minutes intervals for the first hour and every hour after that.
# For mass balance, at the end of 8 h, skin pieces and swabs of the top and bottom surface of the skin were collected and stored in ACN for N1-N13 extraction. Donor solution and receiver solution were also collected.
# The aliquot samples collected were subjected to 2-step extraction using 750 μL of dichloromethane (DCM). […] The solvent was dried using the TurboVap, and then reconstituted with 198 μL of 0.1% formic acid in 50% methanol in water and spiked with 2 μL of ANP (internal standard). The processed aliquot samples and mass balance samples were then sent for analysis using LC-MS/MS. The compounds' steady state fluxes and permeability coefficients were then calculated by fitting the solution to Fick's […] of diffusion at the steady state (linear part) of each experimental cumulative amount curve.
# IL-1α = IL-1α release assay (ELISA) in THP-1 cells; format: cell-based, human; settings: CV75 dose, 24 h
# Description: (§1) CV75 values (concentration showing 75% of THP-1 cell survival) were determined as per the procedure described above in section A of this method. The IL-8 and IL-1α release assay was performed as described in Toxicol In Vitro. 2003, 17(3), 311-321. A Chemokine immunosorbent assay Bio-legend ELISA Max kit was used to quantify the levels of available IL-8 and IL-1α protein. The supernatant media of untreated THP-1 cells was treated with standards, test samples N1-N13 and DMSO in 96 well plate and then was recovered after 24 h of culture. IL-8 and IL-1α was measured by ELISA in 96-well microtiter plates according to the manufacturer protocol (Biolegend, ELISA MAX™, Singapore).
# IL-8 = IL-8 release assay (ELISA) in THP-1 cells; format: cell-based, human; settings: CV75 dose, 24 h
# Description: as §1
# [2] = system: cysteine heptapeptide (Ac-RFAACAA-COOH) and lysine heptapeptide (Ac-RFAAKAA-COOH); experiment: Direct Peptide Reactivity Assay (DPRA); format: biochemical; settings: from mean peptide depletion
# Description: The assay was conducted on N1-N13 in triplicates with the respective solvent used to prepare compound stock solutions as control. A stock concentration of 20 mM was prepared instead of the recommended 100 mM by OECD due to scarcity of compounds. The various constituents of the incubation mixture were freshly prepared to prevent stability issues that could cause variations in results. An incubation mixture with the recommended peptide to test compound ratios of 1:10 for cysteine heptapeptide and 1:50 for lysine heptapeptide (OECD. Test No. 442C: In Chemico Skin Sensitisation 2020) was prepared then incubated at 25° C. for 24 h in a shaking incubator (Toxicol Sci. 2012; 129(2):421-31).
# At 24 h, the incubation mixture was quenched with 75 μL of 95% ACN/H2O containing 200 μM Leucine Enkephalin (Internal Standard). For cysteine DPRA, 100 μL of quenched mixture was spiked into 90 μL of 2% ACN/H2O and 10 μL of freshly prepared 0.016 mM 1,4-Dithiothreitol (DTT) solution. DTT maintains the integrity of thiol groups by preventing the dimerization of thiol groups and degradation of di-adducts to mono-adducts. This second mixture was then incubated at 40° C. for 30 min in a shaking incubator. For lysine DPRA, 10 μL of quenched mixture was spiked into 190 μL of 2% ACN/H2O. All 200 μL of mixtures were transferred into a 96-well plate and sent for analysis with Liquid Chromatography-Tandem Mass Spectrometry (LC-MS/MS).
# [3] = Type C (Oxidative with coupler resorcinol)
Cumulative amount at 8th hour [1],Permeated through skin into receptor [1],Compound,L* (Hair nuance test; Type A (Non-oxidative)),a* (Hair nuance test; Type A (Non-oxidative)),b* (Hair nuance test; Type A (Non-oxidative)),ΔE (total colour difference to natural hair) (Hair nuance test; Type A (Non-oxidative)),ΔH (difference in colour tone) (Hair nuance test; Type A (Non-oxidative)),L* (Hair nuance test; Type B (Oxidative)),a* (Hair nuance test; Type B (Oxidative)),b* (Hair nuance test; Type B (Oxidative)),ΔE (total colour difference to natural hair) (Hair nuance test; Type B (Oxidative)),ΔH (difference in colour tone) (Hair nuance test; Type B (Oxidative)),"eventual colour of bleached hair, Type B (Hair nuance test)",L* (Hair nuance test; [3]),a* (Hair nuance test; [3]),b* (Hair nuance test; [3]),ΔE (total colour difference to natural hair) (Hair nuance test; [3]),ΔH (difference in colour tone) (Hair nuance test; [3]),"eventual colour of bleached hair, Type C (Hair nuance test)","CV75 (concentration affording 75% cell viability), 1 × CV75 (THP-1 cells) [µg/mL]",other results
0.0080 μg/cm^2 and 0.008 μg/cm^2,<0.001 % of applied compound dose,"COCCOc1cc(N)ccc1N [Compound N7, 2-(2-methoxyethoxy)benzene-1,4-diamine]",22,2.7,4.7,13.8,4.6,19,4.7,3,11.2,5.1,Walnut brown,12.3,−0.7,−4,6.0,5.0,vibrant blue colours; also recorded: Navy blue,44.6,"eventual colour of bleached hair, Type A (Hair nuance test): dark brown colour shade; also recorded: Dark hazelnut; Cumulative amount comparison of PPD vs derivatives (times less than PPD) [1]: 675.0; Recovered in donor compartment [1]: 97.5 % of applied compound dose; Recovered in skin [1]: 0.03 % of applied compound dose; Recovered in skin outside diffusion area [1]: 0.007 % of applied compound dose; Recovered in skin swabs [1]: 0.09 % of applied compound dose; Recovered on parafilm and in washes [1]: 0.001 % of applied compound dose; recovery at 8 h, 1 % w/v [1]: 97 ± 1.49%; release of IL-1α (IL-1α): slight elevation; also recorded: marginal release; release of IL-8 (IL-8): slight elevation; also recorded: marginal release; sensitizing potential (DPRA) [2]: moderate sensitization"
0.00794 μg/cm^2,<0.001 % of applied compound dose,"CCC(=O)COc1cc(N)ccc1N [Compound N11, 1-(2,5-diaminophenoxy)butan-2-one]",36,5,8,28.33,5.32,9,0,−1,2,1.41,black colour,32,18,25,37.8,6.14,Pale Brown,65.4,"eventual colour of bleached hair, Type A (Hair nuance test): Greyish brown; Cumulative amount comparison of PPD vs derivatives (times less than PPD) [1]: 680; Recovered in donor compartment [1]: 93.7 % of applied compound dose; Recovered in skin [1]: 0.06 % of applied compound dose; Recovered in skin outside diffusion area [1]: 0.002 % of applied compound dose; Recovered in skin swabs [1]: 0.025 % of applied compound dose; Recovered on parafilm and in washes [1]: 0.005 % of applied compound dose; recovery at 8 h, 1 % w/v [1]: 93.8 ± 1.3%; sensitizing potential (DPRA) [2]: moderate sensitizers"
0.0106 μg/cm^2,<0.001 % of applied compound dose,"CNCCOc1cc(N)ccc1N [Compound N13, 2-(2-(methylamino)ethoxy)benzene-1,4-diamine]",24,8,8,18.38,4.28,36,11,18,33.74,5.8,Grey,25,14,11,23.49,4.84,Brown,54.3,"Recovered in donor compartment [1]: 93.0 % of applied compound dose; Recovered in skin [1]: 0.03 % of applied compound dose; Recovered in skin outside diffusion area [1]: 0.003 % of applied compound dose; Recovered in skin swabs [1]: 0.02 % of applied compound dose; Recovered on parafilm and in washes [1]: 0.003 % of applied compound dose; recovery at 8 h, 1 % w/v [1]: 93.1 ± 1.2%; release of IL-1α (IL-1α): slight elevation; also recorded: marginal release; release of IL-8 (IL-8): slight elevation; also recorded: marginal release; sensitizing potential (DPRA) [2]: moderate sensitizers"
